Test results taken from US9624208B2, “Benzoxazolinone compounds with selective activity in voltage-gated sodium channels” (Merck Sharp & Dohme Corp., priority 2012, dated 2017).

Key:
[1] = molecular target: T1, human Nav1.7 (Homo sapiens, UniProt Q15858); assay: PatchXpress sodium current measurement, inactivated state block, Nav1.7; assay type: cell-based; details: channels stably expressed in HEK 293 cells, double-pulse protocol, 22° C., read-out: potency for the Nav 1.7 sodium ion channel (1.7=)
T1 construct: expressed in transfected cells
Experimental: (§1) Cell Based Assays for Nav 1.7 and Nav 1.5 Activity
(§2) Compounds were tested on human Nav1.7 and Nav1.5 channels stably expressed in HEK 293 cells.
(§3) Sodium Current Measurements on the PatchXpress 7000:
(§4) To measure inactivated state block of sodium channels, test compounds were characterized in an automated PatchXpress® assay (Molecular Devices) using a double-pulse protocol on human Nav1.7 and Nav1.5 channels stably expressed in HEK 293 cells. Cells were held at a potential 20 mV negative to the potential at which ˜50% of the channels are inactivated. A 8000 ms pre-pulse 7 mV positive to the potential at which ˜50% of the channels are inactivated was given followed by a hyperpolarizing 2 ms pulse to −120 mV and a 20 ms test pulse to −20 mV. The protocol was applied to cells in the absence, presence of compound and after washout. The temperature of PatchXpress® instruments was maintained at 22° C. The following recording solutions were used. Internal solution (mM): 30 CsCl, 5 HEPES, 10 EGTA, 120 CsF, 5 NaF, 2 MgCl2, pH 7.3 with CsOH. External solution (mM): 120 NMDG, 40 NaCl, 1 KCl, 0.5 MgCl2, 5 HEPES, 2.7 CaCl2, pH 7.5 with NMDG-OH. Estimated IC50 values were calculated based on at least two compound concentrations tested. For all electrophysiology experiments, offline analysis was used to correct for current rundown and to determine percent inhibition as a function of drug concentration. IC50 values were determined by fitting to the Hill equation.

[2] = molecular target: T2, human Nav1.5 (Homo sapiens, UniProt Q14524); assay: PatchXpress sodium current measurement, inactivated state block, Nav1.5; assay type: cell-based; details: determined by PatchXpress measurement, HEK 293 cells
T2 construct: expressed in transfected cells
Experimental: as §1, §2, §3, §4

T1 sequence (Q15858 whole entry): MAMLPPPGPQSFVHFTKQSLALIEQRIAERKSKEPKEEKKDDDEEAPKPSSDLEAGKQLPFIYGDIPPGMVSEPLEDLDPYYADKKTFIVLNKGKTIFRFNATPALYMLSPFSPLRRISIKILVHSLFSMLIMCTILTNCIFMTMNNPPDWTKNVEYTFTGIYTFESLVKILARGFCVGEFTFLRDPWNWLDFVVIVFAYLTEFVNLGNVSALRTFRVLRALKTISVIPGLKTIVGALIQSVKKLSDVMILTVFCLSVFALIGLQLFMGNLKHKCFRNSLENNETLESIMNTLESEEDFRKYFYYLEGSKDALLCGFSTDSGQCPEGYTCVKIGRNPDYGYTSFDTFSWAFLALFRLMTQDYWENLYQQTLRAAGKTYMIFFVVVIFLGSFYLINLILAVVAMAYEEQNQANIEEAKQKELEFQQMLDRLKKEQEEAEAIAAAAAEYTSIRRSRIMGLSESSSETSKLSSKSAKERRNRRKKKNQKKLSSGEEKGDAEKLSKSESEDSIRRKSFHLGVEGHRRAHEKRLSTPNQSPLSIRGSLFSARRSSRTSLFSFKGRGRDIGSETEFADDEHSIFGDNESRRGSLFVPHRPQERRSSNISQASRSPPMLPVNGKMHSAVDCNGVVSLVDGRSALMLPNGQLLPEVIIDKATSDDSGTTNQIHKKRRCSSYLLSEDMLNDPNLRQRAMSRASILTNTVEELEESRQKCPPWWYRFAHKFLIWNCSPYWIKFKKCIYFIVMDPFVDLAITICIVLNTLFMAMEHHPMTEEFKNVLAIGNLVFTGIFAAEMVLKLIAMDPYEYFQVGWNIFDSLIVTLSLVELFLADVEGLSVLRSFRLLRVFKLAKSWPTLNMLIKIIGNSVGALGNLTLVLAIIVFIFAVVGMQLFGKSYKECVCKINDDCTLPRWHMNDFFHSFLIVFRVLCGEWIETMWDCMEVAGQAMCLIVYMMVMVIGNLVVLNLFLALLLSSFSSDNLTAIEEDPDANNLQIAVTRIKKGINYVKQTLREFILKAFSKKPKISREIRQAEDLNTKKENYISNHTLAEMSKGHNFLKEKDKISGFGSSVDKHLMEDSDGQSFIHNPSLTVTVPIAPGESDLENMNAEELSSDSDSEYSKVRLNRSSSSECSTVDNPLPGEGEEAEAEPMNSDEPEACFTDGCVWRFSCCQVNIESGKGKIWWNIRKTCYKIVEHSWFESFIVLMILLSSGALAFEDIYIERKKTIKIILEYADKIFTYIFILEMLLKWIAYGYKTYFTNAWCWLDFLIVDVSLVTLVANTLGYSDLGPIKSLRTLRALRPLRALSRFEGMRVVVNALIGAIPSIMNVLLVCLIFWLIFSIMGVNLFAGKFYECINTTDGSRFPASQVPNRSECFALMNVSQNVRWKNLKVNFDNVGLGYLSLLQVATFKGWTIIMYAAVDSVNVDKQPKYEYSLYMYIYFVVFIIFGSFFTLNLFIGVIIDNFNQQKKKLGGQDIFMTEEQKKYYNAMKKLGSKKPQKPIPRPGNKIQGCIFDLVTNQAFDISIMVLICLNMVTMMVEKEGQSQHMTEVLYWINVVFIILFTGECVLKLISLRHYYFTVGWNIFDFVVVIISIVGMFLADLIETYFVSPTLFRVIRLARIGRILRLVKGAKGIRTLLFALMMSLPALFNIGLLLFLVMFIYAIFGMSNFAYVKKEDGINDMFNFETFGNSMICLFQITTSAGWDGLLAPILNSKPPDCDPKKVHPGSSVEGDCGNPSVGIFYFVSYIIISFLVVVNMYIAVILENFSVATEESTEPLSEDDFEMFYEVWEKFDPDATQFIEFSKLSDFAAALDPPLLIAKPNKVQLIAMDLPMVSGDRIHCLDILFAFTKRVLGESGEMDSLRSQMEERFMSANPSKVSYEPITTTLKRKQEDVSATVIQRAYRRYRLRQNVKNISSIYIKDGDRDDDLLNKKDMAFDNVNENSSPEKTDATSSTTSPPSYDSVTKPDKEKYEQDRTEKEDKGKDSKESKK
T2 sequence (Q14524 whole entry): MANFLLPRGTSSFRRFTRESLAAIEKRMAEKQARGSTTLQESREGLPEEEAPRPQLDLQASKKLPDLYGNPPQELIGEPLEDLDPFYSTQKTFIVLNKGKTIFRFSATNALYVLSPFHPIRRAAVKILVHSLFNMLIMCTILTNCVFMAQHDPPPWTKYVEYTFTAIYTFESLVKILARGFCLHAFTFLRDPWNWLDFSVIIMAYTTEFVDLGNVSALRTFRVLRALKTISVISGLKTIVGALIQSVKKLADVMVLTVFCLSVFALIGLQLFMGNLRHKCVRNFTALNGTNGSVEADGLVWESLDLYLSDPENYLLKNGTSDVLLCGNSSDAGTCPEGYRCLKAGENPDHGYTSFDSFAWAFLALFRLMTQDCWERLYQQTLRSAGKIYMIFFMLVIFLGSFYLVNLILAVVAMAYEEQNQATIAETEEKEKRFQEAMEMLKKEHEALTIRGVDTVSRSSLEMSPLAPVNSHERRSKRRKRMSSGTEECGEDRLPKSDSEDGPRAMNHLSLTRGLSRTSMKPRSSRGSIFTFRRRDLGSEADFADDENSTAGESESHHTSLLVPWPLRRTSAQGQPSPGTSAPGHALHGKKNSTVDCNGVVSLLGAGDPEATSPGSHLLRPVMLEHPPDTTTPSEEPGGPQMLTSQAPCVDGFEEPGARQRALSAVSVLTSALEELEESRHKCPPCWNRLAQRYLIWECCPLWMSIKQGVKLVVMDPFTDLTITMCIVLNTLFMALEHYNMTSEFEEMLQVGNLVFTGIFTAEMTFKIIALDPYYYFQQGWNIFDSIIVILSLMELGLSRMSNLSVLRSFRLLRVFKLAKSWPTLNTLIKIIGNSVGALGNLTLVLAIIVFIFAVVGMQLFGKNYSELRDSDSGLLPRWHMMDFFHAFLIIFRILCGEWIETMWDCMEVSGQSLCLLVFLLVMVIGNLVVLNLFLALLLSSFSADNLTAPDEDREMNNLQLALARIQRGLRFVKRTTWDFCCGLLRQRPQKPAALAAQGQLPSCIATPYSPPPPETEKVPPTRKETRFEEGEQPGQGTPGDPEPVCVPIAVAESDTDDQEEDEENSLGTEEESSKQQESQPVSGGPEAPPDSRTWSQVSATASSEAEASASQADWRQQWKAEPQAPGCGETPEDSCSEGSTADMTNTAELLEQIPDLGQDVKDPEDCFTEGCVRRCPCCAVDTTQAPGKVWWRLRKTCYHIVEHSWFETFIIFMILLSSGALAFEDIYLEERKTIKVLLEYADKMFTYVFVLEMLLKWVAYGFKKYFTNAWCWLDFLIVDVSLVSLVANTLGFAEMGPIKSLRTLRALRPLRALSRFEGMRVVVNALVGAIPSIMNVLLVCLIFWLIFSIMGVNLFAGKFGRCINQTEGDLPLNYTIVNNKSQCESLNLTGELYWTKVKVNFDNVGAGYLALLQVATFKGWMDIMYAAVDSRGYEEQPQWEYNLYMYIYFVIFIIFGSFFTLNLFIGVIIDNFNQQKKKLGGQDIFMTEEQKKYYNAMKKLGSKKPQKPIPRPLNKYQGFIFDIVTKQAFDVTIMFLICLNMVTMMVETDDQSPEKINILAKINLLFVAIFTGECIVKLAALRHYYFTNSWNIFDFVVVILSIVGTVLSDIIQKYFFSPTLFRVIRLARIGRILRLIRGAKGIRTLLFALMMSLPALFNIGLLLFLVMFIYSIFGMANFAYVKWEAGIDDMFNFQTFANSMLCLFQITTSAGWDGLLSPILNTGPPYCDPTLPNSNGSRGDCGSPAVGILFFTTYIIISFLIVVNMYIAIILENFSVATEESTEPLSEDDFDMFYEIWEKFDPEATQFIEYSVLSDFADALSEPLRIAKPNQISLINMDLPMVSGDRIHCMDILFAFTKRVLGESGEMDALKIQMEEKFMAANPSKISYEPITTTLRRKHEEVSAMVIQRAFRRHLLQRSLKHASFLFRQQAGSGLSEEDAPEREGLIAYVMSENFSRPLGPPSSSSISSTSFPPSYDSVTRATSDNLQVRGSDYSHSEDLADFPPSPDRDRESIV

| Structure (SMILES) | IC50 [1] [µM] | ratio of Nav 1.5:Nav 1.7 potency [2] |
| --- | --- | --- |
| C[C@H](c1ccccc1C1CN(S(C)(=O)=O)C1)n1c(=O)oc2cc(S(=O)(=O)Nc3cccc(F)n3)c(F)cc21 [Ex11-1] | 0.213 | 34 |
| C[C@H](c1cccc2c1CNCC2)n1c(=O)oc2cc(S(=O)(=O)Nc3cc(Cl)ccn3)c(F)cc21 [Ex16-8, N-(4-Chloropyridin-2-yl)-5-fluoro-2-oxo-3-[(1R)-1-(1,2,3,4-tetrahydroisoquinolin-8-yl)ethyl]-2,3-dihydro-1,3-benzoxazole-6-sulfonamide] | 0.134 | 88 |
| Cc1cc2c(cc1S(=O)(=O)Nc1cccc(F)n1)oc(=O)n2[C@H](C)c1cccc(C)c1C#C[C@@H]1CCCC[C@@H]1N [Ex21-25, 3-[(1R)-1-(2-{[(1S,2S)-2-aminocyclohexyl]-ethynyl}-3-methylphenyl)ethyl]-N-(6-fluoropyridin-2-yl)-5-methyl-2-oxo-2,3-dihydro-1,3-benzoxazole-6-sulfonamide] | 0.009 | 167 |
| Cc1cc2c(cc1S(=O)(=O)Nc1cccc(F)n1)oc(=O)n2[C@H](C)c1ccccc1C1CCNCC1 [Ex18-3, (R)—N-(6-Fluoropyridin-2-yl)-5-methyl-2-oxo-3-(1-(2-(piperidin-4-yl)phenyl)ethyl)-2,3-dihydrobenzo[d]oxazole-6-sulfonamide] | 0.013 | 233 |
| C[C@H](c1cccc(C#CCN2CCCC2)c1)n1c(=O)oc2cc(S(=O)(=O)Nc3cccc(F)n3)c(F)cc21 [Ex21-7, 5-fluoro-N-(6-fluoropyridin-2-yl)-2-oxo-3-[(1R)-1-{3-[3-(pyrrolidin-1-yl)prop-1-yn-1-yl]phenyl}ethyl]-2,3-dihydro-1,3-benzoxazole-6-sulfonamide] | 0.337 | 89 |
| Cc1cccc([C@@H](C)n2c(=O)oc3cc(S(=O)(=O)Nc4cccc(F)n4)c(F)cc32)c1CN [Ex19-1, 3-{(1R)-1-[2-(aminomethyl)-3-methylphenyl]ethyl}-5-fluoro-N-(6-fluoropyridin-2-yl)-2-oxo-2,3-dihydro-1,3-benzoxazole-6-sulfonamide] | 0.009 | 603 |
| C[C@H](c1cccc(C#CCN(C)C)c1)n1c(=O)oc2cc(S(=O)(=O)Nc3cccc(F)n3)c(F)cc21 [Ex21-3, 3-[(1R)-1-{3-[3-(dimethylamino)prop-1-yn-1-yl]phenyl}ethyl]-5-fluoro-N-(6-fluoropyridin-2-yl)-2-oxo-2,3-dihydro-1,3-benzoxazole-6-sulfonamide] | 0.808 | 37 |
| Cc1cc2c(cc1S(=O)(=O)Nc1cccc(F)n1)oc(=O)n2Cc1cccc2c1CC(N)CC2 (single isomer, unassigned) [Ex17-6, (S or R)-3-[(7-amino-5,6,7,8-tetrahydronaphthalen-1-yl)methyl]-N-(6-fluoropyridin-2-yl)-5-methyl-2-oxo-2,3-dihydro-1,3-benzoxazole-6-sulfonamide] | 0.012 | 178 |
| C[C@H](c1ccccc1C#CCN1CCC(O)C1)n1c(=O)oc2cc(S(=O)(=O)Nc3cccc(F)n3)c(F)cc21 (stereo partly drawn) [Ex8-8, 5-fluoro-N-(6-fluoropyridin-2-yl)-3-[(1R)-1-{2-[3-(3-hydroxypyrrolidin-1-yl)prop-1-yn-1-yl]phenyl}ethyl]-2-oxo-2,3-dihydro-1,3-benzoxazole-6-sulfonamide] | 0.299 | 75 |
| C[C@H](c1ccccc1C#CCN)n1c(=O)oc2cc(S(=O)(=O)Nc3cccc(F)n3)c(F)cc21 [Ex8-1, (R)-3-(1-(2-(3-Aminoprop-1-yn-1-yl)phenyl)ethyl)-5-fluoro-N-(6-fluoropyridin-2-yl)-2-oxo-2,3-dihydrobenzo[d]oxazole-6-sulfonamide] | 0.05 | 546 |
| C[C@H](c1cccc(C#CC(C)(C)N)c1)n1c(=O)oc2cc(S(=O)(=O)Nc3cccc(F)n3)c(F)cc21 [Ex21-1, 3-{(1R)-1-[3-(3-amino-3-methylbut-1-yn-1-yl)phenyl]ethyl}-5-fluoro-N-(6-fluoropyridin-2-yl)-2-oxo-2,3-dihydro-1,3-benzoxazole-6-sulfonamide] | 0.229 | 151 |
| C[C@H](c1cccc(CCCN2CCC2)c1)n1c(=O)oc2cc(S(=O)(=O)Nc3cccc(F)n3)c(F)cc21 [Ex22-4, 3-[(1R)-1-{3-[3-(azetidin-1-yl)propyl]phenyl}ethyl]-5-fluoro-N-(6-fluoro-pyridin-2-yl)-2-oxo-2,3-dihydro-1,3-benzoxazole-6-sulfonamide] | 0.169 | 178 |
| Nc1ccc2c(c1)C(n1c(=O)oc3cc(S(=O)(=O)Nc4cccc(F)n4)c(F)cc31)CCC2 (stereo not shown) [Ex4-4, 3-(7-Amino-1,2,3,4-tetrahydronaphthalen-1-yl)-5-fluoro-N-(6-fluoropyridin-2-yl)-2-oxo-2,3-dihydro-1,3-benzoxazole-6-sulfonamide] | 0.482 | 166 |
| CNCC#Cc1cccc([C@@H](C)n2c(=O)oc3cc(S(=O)(=O)Nc4cccc(F)n4)c(F)cc32)c1 [Ex21-2, 5-fluoro-N-(6-fluoropyridin-2-yl)-3-[(1R)-1-{3-[3-(methylamino)prop-1-yn-1-yl]phenyl}ethyl]-2-oxo-2,3-dihydro-1,3-benzoxazole-6-sulfonamide] | 0.245 | 122 |
| C[C@H](c1ccccc1C1(F)CNC1)n1c(=O)oc2cc(S(=O)(=O)Nc3cccc(F)n3)c(F)cc21 [Ex12-6, (R)-5-Fluoro-3-(1-(2-(3-fluoroazetidin-3-yl)phenyl)ethyl)-N-(6-fluoropyridin-2-yl)-2-oxo-2,3-dihydrobenzo[d]oxazole-6-sulfonamide] | 0.046 | 648 |
| Cc1cc2c(cc1S(=O)(=O)Nc1cccc(F)n1)oc(=O)n2[C@H](C)c1ccccc1CN [Ex17-7, 3-{(1R)-1-[2-(aminomethyl)phenyl]ethyl}-N-(6-fluoropyridin-2-yl)-5-methyl-2-oxo-2,3-dihydro-1,3-benzoxazole-6-sulfonamide] | 0.049 | 147 |

More lines, main results first:

| IC50 [1] [µM] | Structure (SMILES) | ratio of Nav 1.5:Nav 1.7 potency [2] |
| --- | --- | --- |
| 0.009 | C[C@H](c1ccccc1C#CC(N)CO)n1c(=O)oc2cc(S(=O)(=O)Nc3cccc(F)n3)c(F)cc21 (stereo partly drawn) [Ex8-4, 3-{(1R)-1-[2-(3-amino-4-hydroxybut-1-yn-1-yl)phenyl]ethyl}-5-fluoro-N-(6-fluoropyridin-2-yl)-2-oxo-2,3-dihydro-1,3-benzoxazole-6-sulfonamide] | 822 |
| 0.4 | C[C@H](c1ccccc1C1(O)CNC1)n1c(=O)oc2cc(S(=O)(=O)Nc3cccc(F)n3)c(F)cc21 [Ex12-4, (R)-5-Fluoro-N-(6-fluoropyridin-2-yl)-3-(1-(2-(3-hydroxyazetidin-3-yl)phenyl)ethyl)-2-oxo-2,3-dihydrobenzo[d]oxazole-6-sulfonamide] | 75 |
| 0.069 | Cc1cc2c(cc1S(=O)(=O)Nc1cccc(F)n1)oc(=O)n2[C@H](C)c1cccc(Br)c1C [Ex18-7, 3-[(1R)-1-(3-bromo-2-methylphenyl)ethyl]-N-(6-fluoropyridin-2-yl)-5-methyl-2-oxo-2,3-dihydro-1,3-benzoxazole-6-sulfonamide] | 90 |
| 0.3 | C[C@H](c1ccccc1CN1CCCCC1)n1c(=O)oc2cc(S(=O)(=O)Nc3cccc(F)n3)c(F)cc21 [Ex9-3, 5-fluoro-N-(6-fluoropyridin-2-yl)-2-oxo-3-{(1R)-1-[2-(piperidin-1-ylmethyl)phenyl]ethyl}-2,3-dihydro-1,3-benzoxazole-6-sulfonamide] | 68 |
| 0.107 | Cc1cc2c(cc1S(=O)(=O)Nc1cccc(F)n1)oc(=O)n2[C@H](C)c1cccc(C)c1Br [Ex18-8, 3-[(1R)-1-(2-bromo-3-methylphenyl)ethyl]-N-(6-fluoropyridin-2-yl)-5-methyl-2-oxo-2,3-dihydro-1,3-benzoxazole-6-sulfonamide] | 102 |
| 0.382 | C[C@H](c1cccc(C#CCNC2CCCCC2)c1)n1c(=O)oc2cc(S(=O)(=O)Nc3cccc(F)n3)c(F)cc21 [Ex21-6, 3-[(1R)-1-{3-[3-(cyclohexylamino)prop-1-yn-1-yl]phenyl}ethyl]-5-fluoro-N-(6-fluoropyridin-2-yl)-2-oxo-2,3-dihydro-1,3-benzoxazole-6-sulfonamide] | 27 |
| 0.07 | Cc1cc2c(cc1S(=O)(=O)Nc1cccc(F)n1)oc(=O)n2[C@H](C)c1cccc(CCCN)c1 [Ex22-2, 3-{(1R)-1-[3-(3-amino-propyl)phenyl]ethyl}-N-(6-fluoropyridin-2-yl)-5-methyl-2-oxo-2,3-dihydro-1,3-benzoxazole-6-sulfonamide] | 305 |
